Experimental data: PubChem BioAssay AID743039 (Broad Institute, 2013)
Active and inactive are the calls of the source.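 How the source made its calls: active means fitted curve rises past 0.47 at a concentration no higher than the top valid tested dose; inconclusive means flat curve at a moderate level, or poor fit; inactive means the rest, including signal moving the wrong way.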

tested on: compound-only thermal shift, SYPRO orange fluorescence, no protein; experiment: dye fluorescence signal without protein – biophysical, SYPRO orange, qPCR instrument, dry powder samples, artefact control for FGF22 binder project, dose response (AID 743039); settings: at 0.16 µM

Thermal shift signal, higher = interference, inactive:
CSc1ccc(/C=N/NC(=O)c2ccc3nc[nH]c3c2)cc1 0.305%
CCN1C/C(=C/c2cccs2)c2nc3ccccc3c(C(=O)O)c2C1 0.048%
O=C(Nc1ccc(S(=O)(=O)N2CCCC2)cc1)c1ccccc1 -0.209%
Cc1ccn(-c2ccc(NC(=O)c3cccs3)cc2)n1 -0.057%
Cc1cc(NC(=O)Nc2ccc3c(ccn3C)c2)sn1 0.052%
O=C(Nc1cc(Cl)cc(Cl)c1)N[C@@H]1CC[C@@H](CCNS(=O)(=O)c2cccc(F)c2)O[C@H]1CO 0.061%
CC(=O)Nc1ccc(NC(=O)Nc2ccccc2)cc1 0.246%
Nc1cccc(-c2nc3ccc(C(=O)c4ccccc4)cc3[nH]2)c1 0.145%
CC(=O)Nc1cccc(C(=O)N/N=C/c2c[nH]c3ccccc23)c1 0.019%
CCc1cc(-c2[nH]ncc2-c2ccc3c(c2)OCCO3)c(O)cc1O -0.049%
O=S1(=O)N=C(N(Cc2cccs2)c2ccc(O)cc2)c2ccccc21 0.057%
Cc1ccc(S(=O)(=O)N2C[C@H](O)COC[C@H]3O[C@H](CC(=O)NCc4ccc(Cl)c(Cl)c4)CC[C@@H]32)cc1 0.168%
Cc1cc(C(=O)N/N=C/c2c[nH]c3ccccc23)cs1 0.145%
O=C(Nc1ccc(Cl)cc1)N[C@@H]1CC[C@@H](CCNS(=O)(=O)c2ccccc2F)O[C@H]1CO -0.043%
CCCNC(=O)COC(=O)c1ccccc1C(=O)N(C)C1CCCCC1 -0.157%
O=C(N/N=C/c1c[nH]c2ccccc12)c1ccc(O)c(O)c1 0.065%
Cc1[nH]c2ccc(C(=O)OCC(=O)Nc3cccc(S(N)(=O)=O)c3)cc2c1C -0.322%
Nc1ccc(C(=O)N/N=C/c2c[nH]c3ccccc23)cc1 0.042%
O=C(N/N=C/c1c[nH]c2ccccc12)c1cccc(O)c1 0.355%
CCNC(=O)C[C@@H]1CC[C@H]2[C@H](COc3ccc(NC(=O)Nc4ccc(Cl)cc4)cc3C(=O)N2C)O1 0.052%
O=C(N/N=C/c1cccc(Oc2ccccc2)c1)c1cccc(O)c1 -0.026%
CCc1cc(-c2n[nH]c(C)c2-c2ccc3c(c2)OCCO3)c(O)cc1O -0.093%
Cc1ccc(OCCCC(=O)Nc2ccc(S(=O)(=O)N3CCOCC3)cc2)cc1 -0.12%
Clc1ccc(Nc2ccc(NCc3ccccc3)nn2)cc1 -0.178%
O=C(C[C@H]1CC[C@@H]2[C@H](COC[C@H](O)CN2S(=O)(=O)c2cccc(Cl)c2)O1)Nc1ccccc1 -0.063%
O=C(N/N=C/c1ccc(C(F)(F)F)cc1)c1ccc(O)cc1 -0.028%
O=C(Nc1ccc(S(=O)(=O)N2CCCC2)cc1)c1cccs1 -0.157%
O=C(N/N=C/c1c[nH]c2ccccc12)c1cccc(Cl)c1 0.069%
O=S(=O)(Nc1nnc(C(F)(F)F)s1)c1ccc(Cl)cc1 -0.081%
COC(=O)C1=C(CS(=O)(=O)c2cc(OC)ccc2OC)NC(=O)NC1c1ccc(O)c(OC)c1 (stereo not given) -0.182%
O=C(N/N=C/c1c[nH]c2ccccc12)c1cccs1 -0.182%
O=C(NCCc1c[nH]c2ccccc12)c1ccc(Cl)cc1 0.048%
CN(Cc1c(C(=O)N/N=C/c2ccc(O)cc2)nnn1-c1nonc1N)c1ccccc1 -0.045%
Cc1ccc(S(=O)(=O)N2C[C@@H](O)COC[C@@H]3O[C@@H](CC(=O)NCc4ccc(Cl)c(Cl)c4)CC[C@H]32)cc1 0.045%
CC(C)c1c(C(=O)N/N=C/c2c[nH]c3ccccc23)nnn1-c1nonc1N -0.009%
CCN1C(=O)C(CC(=O)Nc2ccc(F)cc2)N(Cc2ccc3c(c2)OCO3)C1=S (stereo not given) -0.165%
O=C(Nc1nccs1)C1CC(=O)N(c2ccc(F)cc2)C1 (stereo not given) -0.148%
O=C(Nc1ccc(S(=O)(=O)N2CCOCC2)cc1)c1ccc(F)cc1 -0.05%
O=C(Nc1cc(Cl)cc(Cl)c1)N[C@@H]1CC[C@@H](CCNS(=O)(=O)c2cccc(F)c2)O[C@@H]1CO 0.004%
CCOc1cccc(C(=O)Nc2ccc3[nH]ncc3c2)c1 -0.066%
COc1ccc(C)cc1NS(=O)(=O)c1ccc(NS(=O)(=O)c2ccc(NC(C)=O)cc2)cc1 -0.005%
COC(=O)C[C@H]1CC[C@@H]2[C@@H](COc3ccc(NC(=O)Nc4cccc(C#N)c4)cc3C(=O)N2C)O1 0.097%
COc1ccc(Nc2nc3ccc(OC)cc3s2)cc1 0.188%
O=C(O)Cc1ccc(NC(=O)c2ccc(Cl)c(Cl)c2)cc1 0.188%
CC(=O)Nc1cccc(NC(=O)c2ccc3[nH]c(C)c(C)c3c2)c1 -0.227%
COC(=O)C[C@H]1CC[C@@H]2[C@@H](COc3ccc(NC(=O)Nc4ccc(C#N)cc4)cc3C(=O)N2C)O1 0.237%
Cc1[nH]c2ccccc2c1C(=O)NS(=O)(=O)Nc1ccc(Cl)cc1 -0.148%
COc1ccc(-c2nc(-c3ccc(O)cc3O)cs2)cc1OC 0.011%
COc1cc(/C=N/NC(=O)c2cc3ccccc3[nH]2)ccc1O -0.114%
CC(=O)c1ccc(NC(=O)Nc2cccnc2)cc1 0.235%
